Source: paper PMC6610665, “On the potential of in vitro organ-chip models to define temporal pharmacokinetic-pharmacodynamic relationships” (Scientific Reports, 2019)
Like-named read-outs stand apart in the source and are kept apart here.

Assays:
hiPS-CMs = assay: Heart only MPS model, field potential duration (FPD) by MEA; assay type: cell-based, human; conditions: 5 µM terfenadine
Protocol: The medium recirculates between 2 reservoirs through a microfluidic network formed by the PDMS gaskets, with flow driven by a rocking platform producing a sinusoidal rocking profile with amplitude of ±1° and period of 60 seconds. The medium flows over the cell-containing areas of the liver coverslips and cardiac cantilever and MEA chips within the microfluidic channel. The system contained a total of 2 mL of medium throughout the flow channel and reservoirs. Compound dosing was applied at the reservoir closest to the liver chamber, such that the compound would first pass over and interact with the liver before being recirculated throughout the system.
hiPS-CMs (purchased from Cellular Dynamics) were thawed and seeded directly onto the surfaces at 50,000 cells per MEA and 500,000 cells per cantilever[6]. Primary human hepatocytes were purchased from the Cell Resources Core (Massachusetts General Hospital, Boston, MA, USA). Once thawed, 150,000 hepatocytes were cultured in the hepatic chamber which was coated with rat tail collagen type I (60 ug/mL) as previously described[6]. […]
FPD, spontaneous beat frequency and CV were extracted using Clampfit (Axon Instruments). The FPD was calculated by measuring the time from the initiation of the Q-wave until the apex of t-wave. […]

[1] = Heart only and heart:liver chip PKPD model (Phoenix NLME 7.0)
Protocol: Heart, liver, media, and PDMS compartments and their corresponding parameters can be seen outlined in Fig. 4a.
A fifth compartment, FPD, was added to the Phoenix model to represent a PD profile linked to the defined PK model.
Using the experimental data collected (Fig. 3), parameters (except for Kint) were simultaneously fit across heart only and heart-liver systems. […] In the heart only case, the liver compartment was eliminated resulting in relevant parameters being equal to 0. Volumes of each compartment was defined by system parameters described above. The liver volume was initialized based on the system estimates but allowed to vary to account for any differences between assumed and actual cell numbers or sizes. […] Published Guinea pig[23], dog[24] and human, PK profiles were used as inputs into the established model in order to predict cardiac bioaccumulation over time, and therefore predict change in predicted FPD. While Guinea pig and dog temporal PKPD data is available in the literature, matching human data is not. […] The reported standard deviation values in PK profile were used to capture the associated error in predicted FPD values.

[2] = heart only model, 5 µM terfenadine
Protocol: (§1) All drugs were separated using gradient elution methodology on a C18 phase (Agilent Zorbax Eclipse Plus, 4.6 mm, 100 mm length, 3 µm particle diameter) with binary mobile phase. Samples (50 µL) were diluted with acetonitrile and centrifuged to precipitate proteins after addition of the internal standard. The MS was set to positive ion mode and multiple reactive monitoring with nitrogen used for collision induced dissociation.

[3] = heart:liver model, 5 µM terfenadine, mean ± SD
Protocol: as §1

[4] = set-up: method as in PMID 18587422, PMID 16581270; conditions: dog; assumed for FPD simulation; cited from earlier work
[5] = set-up: method as in PMID 18587422, PMID 16581270; conditions: Guinea pig; assumed for FPD simulation; cited from earlier work
[6] = set-up: method as in PMID 18587422, PMID 16581270; conditions: human; assumed for FPD simulation; cited from earlier work
[7] = fit across heart only and heart:liver systems

| SMILES | increase in FPD (hiPS-CMs; 12-hour timepoint) | increase in FPD (peak measurable change) (hiPS-CMs; 4 hours) | KC1 (flow medium to heart), estimate [1, 7] | KP2 (first order flow PDMS to medium), estimate [1, 7] | Kfc (metabolism of terfenadine to fexofenadine in heart compartment), estimate [1, 7] | KL2 (flow liver to medium), estimate ([1]; heart:liver system) | Kfl (metabolism of terfenadine to fexofenadine in liver compartment), estimate ([1]; heart:liver system) | terfenadine concentration in media ([2]; 12-hour timepoint) | terfenadine concentration in media (peak) ([2]; 0.5 hours, mean ± SD) | terfenadine concentration in cardiomyocyte lysates (peak) ([2]; 4 hours, mean ± SD) | terfenadine concentration in media (peak) ([3]; 0.5 hours) | terfenadine concentration in heart chamber lysate (peak) ([3]; peak between 0.5 and 1 hours) | terfenadine concentration in liver chamber lysate (peak) ([3]; peak between 0.5 and 1 hours) | percent free protein in plasma [4] | percent free protein in plasma [5] | percent free protein in plasma [6] | tvKint (delay of fexofenadine release into the system), estimate ([1]; fit to fexofenadine concentration data, units printed n/a) |
| --- | --- | --- | --- | --- | --- | --- | --- | --- | --- | --- | --- | --- | --- | --- | --- | --- | --- |
| CC(C)(C)c1ccc(C(O)CCCN2CCC(C(O)(c3ccccc3)c3ccccc3)CC2)cc1 (centres unmarked) [terfenadine] | 4.8 fold | 8 fold | 0.0019 min⁻¹ | 0.00052 min⁻¹ | 0.0009 min⁻¹ | 0.04988 min⁻¹ | 0.0162 min⁻¹ | 0.099 µM | 5.88 µM | 2.65 µM | 0.53 µM | 1.08 µM | 12.04 µM | 2% | 3% | 3% |  |
| CC(C)(C(=O)O)c1ccc(C(O)CCCN2CCC(C(O)(c3ccccc3)c3ccccc3)CC2)cc1 (centres unmarked) [fexofenadine] |  |  |  |  |  |  |  |  |  |  |  |  |  |  |  |  | 0.00062 |
